Laboratory results published in patent publication US20100004128A1, “HERBICIDAL ISOXAZOLINE COMPOUNDS” (SYNGENTA CROP PROTECTION, INC., priority 2006, published 2010).

What was measured:
[1] = test system: Monocotyledonous and dicotyledonous test plants; experiment: Herbicidal action, application pre-emergence; format: in vivo; design: key: 10=total damage to plant; 0=no damage to plant; conditions: spray solution 1000 mg/l, scale 0-10; for Herbicidal action (damage score) AGSTE: Agrostis tenius; for Herbicidal action (damage score) AMARE: Amaranthus retroflexus; for Herbicidal action (damage score) DIGSA: Digitaria sanguinalis; for Herbicidal action (damage score) POATR: Poa trivialis; for Herbicidal action (damage score) SETFA: Setaria faberi; for Herbicidal action (damage score) SETIT: Setaria italica
Description: Monocotyledonous and dicotyledonous test plants were sown in sterilised standard soil in seed trays each having 96 cells. After one day (pre-emergence) or after 8 to 9 days cultivation (post-emergence) under controlled conditions in a climatic chamber (cultivation at 23/17° C., day/night; 13 hours light; 50-60% humidity; after application at 24/19° C., day/night), the plants were treated with an aqueous spray solution of 1000 mg/l of the active ingredient used (incl. 10% DMSO as solvent). The plants were grown on in the climatic chamber until the test was evaluated (10=total damage to plant, 0=no damage to plant) after 9 or 13 days.

melting point [°C]	Structure (SMILES)	Herbicidal action (damage score) AGSTE [1]	Herbicidal action (damage score) AMARE [1]	Herbicidal action (damage score) DIGSA [1]	Herbicidal action (damage score) POATR [1]	Herbicidal action (damage score) SETFA [1]	Herbicidal action (damage score) SETIT [1]
–	CCn1ncc(C(F)(F)[S+]([O-])C2=NOC(C)(C)C2)n1 (stereo not shown) [1.40]	10	10	9	10	9	–
–	Cc1nn(C(C)C)nc1C(F)(F)S(=O)(=O)C1=NOC(C)(C)C1 [1.41]	10	10	10	10	9	–
–	COc1nn(C)nc1C(F)(F)S(=O)(=O)C1=NOC(C)(C)C1 [1.43]	10	10	10	0	10	–
–	COc1nn(C)nc1C(F)(F)[S+]([O-])C1=NOC(C)(C)C1 (stereo not shown) [1.44]	10	10	10	0	9	–
–	Cn1nc(Br)c(C(F)S(=O)(=O)C2=NOC(C)(C)C2)n1 (stereo not shown) [1.45]	10	9	10	10	9	–
–	Cn1nc(Br)c(C(F)(F)S(=O)(=O)C2=NOC(C)(C)C2)n1 [1.46]	10	10	10	10	9	–
–	Cn1nc(Br)c(C(F)(F)[S+]([O-])C2=NOC(C)(C)C2)n1 (stereo not shown) [1.47]	10	10	9	10	9	–
–	CC1(C)CC(S(=O)(=O)C(F)(F)c2nn(CC3CCC3)nc2C(F)(F)F)=NO1 [1.48]	10	9	10	6	9	–
–	CC1(C)CC([S+]([O-])C(F)(F)c2nn(CC3CCC3)nc2C(F)(F)F)=NO1 (stereo not shown) [1.49]	10	9	10	10	9	–
–	CC1(C)CC(S(=O)(=O)C(F)(F)c2cn(C(C)(C)C)nn2)=NO1 [2.02]	9	3	9	9	8	–
–	CC1(C)CC([S+]([O-])C(F)(F)c2cn(C(C)(C)C)nn2)=NO1 (stereo not shown) [2.04]	6	0	2	0	6	–
–	Cn1nnc(C(F)(F)F)c1C(F)(F)S(=O)(=O)C1=NOC(C)(C)C1 [3.02]	10	10	10	10	–	10
–	Cn1nnc(Br)c1C(F)(F)[S+]([O-])C1=NOC(C)(C)C1 (stereo not shown) [3.06]	10	10	9	10	9	–
54	Cn1nc(CF)c(C(F)(F)S(=O)(=O)C2=NOC(C)(C)C2)n1 [Compound No. 1.01, 4-[(5,5-dimethyl-4,5-dihydro-isoxazole-3-sulfonyl)-difluoro-methyl]-5-fluoromethyl-2-methyl-2H-[1,2,3]triazole]	10	10	10	10	–	10
80	Cn1nc(CF)c(C(F)(Cl)S(=O)(=O)C2=NOC(C)(C)C2)n1 (stereo not shown) [Compound No. 1.03, 4-[chloro-(5,5-dimethyl-4,5-dihydro-isoxazole-3-sulfonyl)-fluoro-methyl]-5-fluoromethyl-2-methyl-2H-[1,2,3]triazole]	10	8	10	10	–	9
–	Cc1nn(C)nc1C(F)S(=O)(=O)C1=NOC(C)(C)C1 (stereo not shown) [Compound No. 1.04, 4-[(5,5-dimethyl-4,5-dihydro-isoxazole-3-sulfonyl)-fluoro-methyl]-2,5-dimethyl-2H-[1,2,3]triazole]	10	9	10	10	–	9
–	Cc1nn(C)nc1C(F)(F)S(=O)(=O)C1=NOC(C)(C)C1 [Compound No. 1.05]	10	10	10	10	–	10
–	Cc1nn(C)nc1C(F)(F)[S+]([O-])C1=NOC(C)(C)C1 (stereo not shown) [Compound No. 1.08, 4-[(5,5-dimethyl-4,5-dihydro-isoxazole-3-sulfinyl)-difluoro-methyl]-2,5-dimethyl-2H-1,2,31-triazole]	10	10	10	10	9	–
–	CC1(C)CC(S(=O)(=O)C(F)c2cn(C(C)(C)C)nn2)=NO1 (stereo not shown) [Compound No. 2.01]	10	3	9	0	9	–
–	Cn1nnc(C(F)(F)F)c1C(F)S(=O)(=O)C1=NOC(C)(C)C1 (stereo not shown) [Compound No. 3.01]	10	5	10	10	–	8
–	Cn1nnc(C(F)(F)F)c1C(F)(F)[S+]([O-])C1=NOC(C)(C)C1 (stereo not shown) [Compound No. 3.03]	10	10	9	10	8	–
–	Cn1nnc(Br)c1C(F)(F)S(=O)(=O)C1=NOC(C)(C)C1 [Compound No. 3.04]	10	10	9	10	9	–
